For series [1], the system named is Gloeophyllum trabeum (ATCC 11539). Kind of series: Soil block decay test (AWPA E10-87), brown rot. The format is cell-based. The text has this: (§1) Wood flakeboard was manufactured by conventional wood processing techniques, incorporating various borates at a range of concentrations, from 0.5 to 2.0% boric acid equivalent (BAE). Boric acid (H3BO3) equivalent is a commonly used convention for comparing various borates on an equivalent contained-boron basis. For each borate/loading combination, fifteen pounds of aspen (Populus tremuloides) furnish having an average particle size of about 2.5×0.75×0.025 inches, was blended with 0.75 pounds (5%) Rubinate 1840 (product of ICI), a polymeric methylene diphenyl diisocyanate adhesive, 0.11 pounds (0.75%) of Cascowax EW 403HS (product of Borden) and various concentrations of nine test borates. For each borate/loading combination, three 18″×18″ composite boards of 0.5 inch thickness were formed by pressing for 210 seconds at (180 seconds pressure, 30 seconds pressure release) at 204.5° C. (the pressure was kept in excess of 6000 psi during the pressure cycle). Each board was trimmed to 15″×15″ and cut to produce internal bond and analytical/soil block specimens for evaluation. Replicates were cut from the inner portion of the boards. Four internal bond, two leaching panels and twenty analytical/soil block specimens were cut from each board.
(§2) The panels to be leached (4.5″×4.5″) were edge sealed with an epoxy sealant and leached for two weeks. Leaching began with pressure treatment of the specimens with water for 30 minutes under vacuum and one hour under pressure. The specimens were removed from the pressure treatment chamber and the residual water was changed after two hours, then daily for the remainder of the leaching period. Afterward, they were trimmed to remove the sealed edges and cut into analytical/soil block test samples. Unleached and leached analytical/soil block samples for each board type were separately randomized. Fifteen were analyzed for borate content and ten were retained for the soil block decay test.
(§3) The soil block test was conducted in accordance with AWPA E10-87, with the exception that soil block dimensions were 1.0″×1.0″×0.5″. The fungi used were Gloeophyllum trabeum (ATCC 11539) for brown rot test and Trametes versicolor (MAD 697) for white rot test. An untreated composite control was run both unleached and leached. Solid southern yellow pine and birch were also run as unleashed controls against G. trabeum and T. versicolor, respectively as a test of fungal vigor.

Series [2] deals with Trametes versicolor (MAD 697). Put plainly: Soil block decay test (AWPA E10-87), white rot. In kind it is cell-based.
Text: as §1, §2, §3

Series [3] can be described thus: Borate content of composite after two weeks water leaching. The format is physicochemical. The note with it: leached two weeks. Here is the method:
as §2

Series [4] is described as follows: Bulk solids flow testing, J. R. Johanson Indicizer System. The format is physicochemical. The text has this: Bulk solids flow testing was done using the J. R. Johanson Indicizer System, including a Hang-up Indicizer and Hopper Indicizer, manufactured by J R Johanson, Inc. 712 Fiero Lane #37, San Luis Obispo, Calif. 93401. The test procedures are described in detail in their company literature (BULK SOLIDS INDICES TESTING, Hang-up Indicizer™ Instruction Manual ©JR Johanson, Inc. 1991 and BULK SOLIDS INDICES TESTING, Hopper Indicizer™ Instruction Manual ©JR Johanson, Inc. 1991). The results are presented in the following Table 3 as the Arching Index, Ratholing Index, Hopper Index and Chute Index, which are the average of several tests (3-6). The meaning and usefulness of these flow indices in evaluating the flow properties of bulk solids are also described in literature from JR Johanson, Inc., including Binside Scoop™, Vol. 7, No. 2, Fall 1994, Binside Scoop™, Vol. 8, No. 3, Winter 1995, and “Bulk solids Flow Indices—A Simplified Evaluation system”, by Jerry R. Johanson, ©JR Johanson, 1991.
Arching Index—A tendency of a cohesive material is to plug up the opening of a bin by forming an “arch” over the discharge opening. The arching index is given as a multiple of the discharge opening, so less than 1 is necessary for free flow. Numbers greater than 1 reflect a need to enlarge the opening.
Ratholing Index—A tendency of a cohesive material is to hang up on the sides of a bin while an open hole forms in the center and flow ceases. Rathole indices are also given as a multiple of the discharge opening and a number of less than 1 is necessary for free flow. Numbers greater than 1 mean the bins should be redesigned.
Hopper Index—The maximum angle, measured in degrees from the vertical, that is required for the conical portion of a hopper in order to produce reliable mass flow. A larger number is better.
Chute Index—The minimum angle, measured in degrees from horizontal, required for flow down a chute and to prevent material buildup at impact areas. A smaller number is better. Chute indices may often be close to the angle of repose.
Both hopper and chute indices measurements involve friction over a specified surface and measurements are made using substrates of the material of construction. The substrates used for these tests are 304-2B Stainless Steel, aged carbon steel and Tivar UHMWPE (ultra high molecular weight polyethylene) plastic.

The mark [5] stands for this setting: leached two weeks, target loading 0.5% BAE (0.09% B).
Where [6] appears, read: leached two weeks, target loading 1.0% BAE (0.17% B).
Where [7] appears, read: leached two weeks, target loading 2.0% BAE (0.35% B).
The mark [8] stands for this setting: unleached aspen flakeboard, target loading 0.5% BAE (0.09% B).
Where [9] appears, read: unleached aspen flakeboard, target loading 1.0% BAE (0.17% B).
Setting [10] is: unleached aspen flakeboard, target loading 2.0% BAE (0.35% B).
The mark [11] stands for this setting: target loading 0.5% BAE (0.09% B).
[12] abbreviates: target loading 1.0% BAE (0.17% B).
[13] abbreviates: target loading 2.0% BAE (0.35% B).
The mark [14] stands for this setting: multiple of the discharge opening, less than 1 necessary for free flow, average of 3-6 tests, Glass Grade.

With `O=BOB=O` [Boric Oxide (60m), Boric Oxide, reference compound], the “Mean % Wt. Loss G. trabeum” value in series [1] (setting [5]) amounted to 8.0%; in series [1] (setting [6]), 6.0%; in series [1] (setting [7]), 3.3%; in series [1] (setting [8]) it was 1.6%; in series [1] (setting [9]) it was 0.7%; in series [1] (setting [10]), 1.1%. The “Mean % Wt. Loss T. versicolor” value in series [2] (setting [5]) came to 50.4%; in series [2] (setting [6]), 35.8%; in series [2] (setting [7]), 23.2%; in series [2] (setting [8]), 7.6%; in series [2] (setting [9]) it was 3.6%; in series [2] (setting [10]), 3.7%. Moreover, the figures for the “Assay % B” value in series [3] (setting [11]), in series [3] (setting [12]) and in series [3] (setting [13]) were 0.02 % B, 0.03 % B and 0.07 % B, respectively.
Regarding Hydroboracite, the “Mean % Wt. Loss G. trabeum” value is given as 9.4% in series [1] (setting [5]); 4.2% in series [1] (setting [6]); 1.8% in series [1] (setting [7]); 1.1% in series [1] (setting [8]); 1.0% in series [1] (setting [9]); 2.2% in series [1] (setting [10]). Also, the “Mean % Wt. Loss T. versicolor” value in series [2] (setting [5]) was 27.1%; in series [2] (setting [6]) it was 21.0%; in series [2] (setting [7]) it was 4.5%; in series [2] (setting [8]) it was 2.8%; in series [2] (setting [9]) it was 3.6%; in series [2] (setting [10]), 2.2%. In addition, the “Assay % B” value amounted to 0.05 % B in series [3] (setting [11]), 0.06 % B in series [3] (setting [12]) and 0.13 % B in series [3] (setting [13]).
For Ulexite, the “Mean % Wt. Loss G. trabeum” value is listed as 6.6% in series [1] (setting [5]); 1.0% in series [1] (setting [6]); 1.3% in series [1] (setting [7]); 1.4% in series [1] (setting [8]); 0.8% in series [1] (setting [9]); 1.8% in series [1] (setting [10]). The “Mean % Wt. Loss T. versicolor” value was determined as 22.3% in series [2] (setting [5]); 11.0% in series [2] (setting [6]); 7.2% in series [2] (setting [7]); 13.9% in series [2] (setting [8]); 3.4% in series [2] (setting [9]); 3.0% in series [2] (setting [10]). The “Assay % B” value in series [3] (setting [11]) was determined as 0.03 % B; in series [3] (setting [12]), 0.08 % B; in series [3] (setting [13]), 0.11 % B.
Consider Colemanite [Colemanite (1)], for which the “Comparison with zinc borate against G. trabeum” value in series [1] (after leaching) is “roughly comparable to zinc borate”. The “Mean % Wt. Loss G. trabeum” value was 5.5% in series [1] (setting [5]); 1.5% in series [1] (setting [6]); 1.0% in series [1] (setting [7]); 0.6% in series [1] (setting [8]); 1.0% in series [1] (setting [9]); 1.5% in series [1] (setting [10]). Besides, the “Comparison with zinc borate against T. versicolor” value in series [2] (after leaching) is listed as “roughly comparable to zinc borate”. For the same compound, the “Mean % Wt. Loss T. versicolor” value in series [2] (setting [5]) came to 27.5%; in series [2] (setting [6]), 8.4%; in series [2] (setting [7]), 2.5%; in series [2] (setting [8]) it was 3.9%; in series [2] (setting [9]) it was 3.7%; in series [2] (setting [10]), 2.4%. In addition, the “Assay % B” value in series [3] (setting [11]) was determined as 0.03 % B; in series [3] (setting [12]), 0.07 % B; in series [3] (setting [13]), 0.19 % B. For the same compound, the “Hopper Index Stainless Steel” value in series [4] (304-2B Stainless Steel, maximum angle from the vertical, larger is better, Glass Grade) came to 14 degrees. The “Chute Index Stainless Steel” value in series [4] (304-2B Stainless Steel, minimum angle from horizontal, smaller is better, Glass Grade) is recorded as 76 degrees. Moreover, the “Hopper Index Plastic” value in series [4] (Tivar UHMWPE plastic, maximum angle from the vertical, larger is better, Glass Grade) worked out at 8 degrees. For the same compound, the “Chute Index Plastic” value in series [4] (Tivar UHMWPE plastic, minimum angle from horizontal, smaller is better) is 90 degrees. For the same compound, the “Hopper Index Carbon Steel” value in series [4] (aged carbon steel, maximum angle from the vertical, larger is better, Glass Grade) worked out at 3 degrees. In series [4] (aged carbon steel, minimum angle from horizontal, smaller is better, Glass Grade), the “Chute Index Carbon Steel” value is recorded as 82 degrees. Further, the “Arching Index” value in series [4] (setting [14]) is 0.7. Further, the “Ratholing Index” value in series [4] (setting [14]) is listed as 4.7.
For `O=BOB=O` [Boric Oxide (4m), Boric Oxide, reference compound], the “Mean % Wt. Loss G. trabeum” value stood at 15.5% in series [1] (setting [5]); 7.4% in series [1] (setting [6]); 3.0% in series [1] (setting [7]); 2.6% in series [1] (setting [8]); 1.4% in series [1] (setting [9]); 1.7% in series [1] (setting [10]). The “Mean % Wt. Loss T. versicolor” value is 34.3% in series [2] (setting [5]); 29.5% in series [2] (setting [6]); 9.5% in series [2] (setting [7]); 7.5% in series [2] (setting [8]); 9.0% in series [2] (setting [9]); 2.9% in series [2] (setting [10]). The “Assay % B” value in series [3] (setting [11]) is 0.02 % B; in series [3] (setting [12]), 0.04 % B; in series [3] (setting [13]), 0.09 % B.
Consider Gowerite, for which the “Mean % Wt. Loss G. trabeum” value in series [1] (setting [5]) came to 7.4%; in series [1] (setting [6]) it was 5.8%; in series [1] (setting [7]), 3.1%; in series [1] (setting [8]), 0.9%; in series [1] (setting [9]), 0.9%; in series [1] (setting [10]) it was 1.3%. Moreover, the “Mean % Wt. Loss T. versicolor” value in series [2] (setting [5]) came to 24.7%; in series [2] (setting [6]) it was 14.7%; in series [2] (setting [7]), 11.8%; in series [2] (setting [8]), 5.5%; in series [2] (setting [9]), 3.1%; in series [2] (setting [10]), 2.6%. Moreover, the “Assay % B” value in series [3] (setting [11]) was found to be 0.04 % B; in series [3] (setting [12]), 0.07 % B; in series [3] (setting [13]) it was 0.09 % B.

The values are drawn from patent publication US6368529B1, “Lignocellulosic composite” (U.S. Borax Inc., priority 2000, dated 2002).
